Experimental data taken from patent publication US9060979B2, “Antidepressant” (OTSUKA PHARMACEUTICAL FACTORY, INC., priority 2006, dated 2015).

Test system: SD rats
Assay: Defensive withdrawal test in rats under stress (time to come out of a cylinder)
Format: in vivo, rat
Settings: for antidepressant effect: same defensive withdrawal tests in SD rats as for L-isoleucine
Procedure: SD rats (10-week-old) were divided into two groups (10 rats in each group). One group (control group) was kept for 6 days with free access to food (standard AIN-76 diet manufactured by Nosan Corporation) and water. The other group (present invention group) was kept for 6 days with free access to food (standard AIN-76 diet containing 1% by mass of L-isoleucine) and water. Using these subject animals, depression-improving activity in rats under stress was tested according to the defensive withdrawal test method by Gutman, D. A. et al. (The Journal of Pharmacology and Experimental Therapeutics, 304 (2), 874 (2003)). That is, a rat (one from each group) was dropped, tail first, into an upright black cylinder 10 cm in diameter and 20 cm in length, and immediately covered with a lid. After 10 seconds, the cylinder was placed in an open field (100 cm long, 100 cm wide, and 45 cm high) made up of white acrylic boards, facing one corner, at a position 20 cm from the corner. […] The test was carried out under an illuminance of 200 1× in a soundproof room, and behavior of the rat was videotaped from above and observed using a monitor outside the soundproof room. Statistical processing was performed by two-sided Student's t-test.

Q: For CC[C@H](C)[C@H](N)C(=O)O [L-isoleucine], which “time the rat took to come out of the cylinder” value (SD rats, 10-week-old, 6 days free access to AIN-76 diet containing 1% by mass of the amino acid, observed 5 minutes, compared to control group) is on record?
A: Its value is “significantly shorter time to come out of the cylinder”.

Q: For CC(C)C[C@H](N)C(=O)O [L-leucine], which antidepressant effect is on record?
A: Its antidepressant effect is “same antidepressant effect as that of L-isoleucine was confirmed”.

Q: How did the antidepressant effect turn out when CC(C)[C@H](N)C(=O)O [L-valine] was run?
A: The antidepressant effect was “same antidepressant effect as that of L-isoleucine was confirmed”.
